Among the data in patent publication US11964950B2, “Arylamide derivative having antitumor activity” (priority 2020, dated 2024) are IC50 values, retold here.

The test system of one experiment is A549 human lung cancer cells. Briefly: Cell proliferation-inhibiting activity, A549 (CellTiter-Glo, ATP in viable cells). It is filed as cell-based. The note with it: A549, 96 h, Table 3, 4 days culture. The method, then: (§1) The cell proliferation-inhibiting activity of the compounds listed in Table 3 below was evaluated by measuring the amount of ATP in viable cells as described below.
(§2) The test compound was serially diluted with DMSO and then diluted 25-fold with Ca^2+, Mg^2+-free phosphate-buffered saline, and was then dispensed into a 96-well plate at 5 μL per well. A cell suspension containing the below indicated concentration of A549, Calu-6 or NCI-H2122 human lung cancer cells (all obtained from ATCC) was prepared using the below indicated medium with the addition of 10% fetal bovine serum (Sigma). The cell suspension was dispensed into the test compound-added plate at 95 μL per well and cultured in a 5% carbon dioxide gas incubator at 37° C. After 4 days, 80 μL of CellTiter-Glo (registered trademark) (Promega Corp.) was added to each well and the bioluminescence was measured with a fluorescent plate reader.
A549: Dulbecco's Modified Eagle's Medium (Sigma); 2000 cells/95 μL
In general terms: ATP-based viability assays read luminescence as a measure of living cells.
As usually defined, the IC50 is the point on the concentration scale where inhibition reaches its midpoint. Lower therefore signals greater potency in that assay. `COCCNS(=O)(=O)Nc1nccc(Cc2cc(C(N)=O)c(Nc3ccc(I)cc3F)cc2F)c1F` [1-4, 4-Fluoro-2-(2-fluoro-4-iodoanilino)-5-[[3-fluoro-2-(2-methoxyethylsulfamoylamino)pyridin-4-yl]methyl]benzamide] registered an IC50 of 444 nM.
The same measure, in the same setting: as for `COCCNS(=O)(=O)Nc1nccc(Cc2cc(C(N)=O)c(Nc3ccc(I)cc3F)n(C)c2=O)c1F` [J-2, 2-(2-Fluoro-4-iodoanilino)-5-[[3-fluoro-2-(2-methoxyethylsulfamoylamino)pyridin-4-yl]methyl]-1-methyl-6-oxopyridine-3-carboxamide], the figure is 351 nM; as for `COCCNS(=O)(=O)Nc1nccc(Cc2cc(C(=O)NC3CC3)c(Nc3ccc(I)cc3F)n(C)c2=O)c1F` [J-7, N-Cyclopropyl-2-(2-fluoro-4-iodoanilino)-5-[[3-fluoro-2-(2-methoxyethylsulfamoylamino)pyridin-4-yl]methyl]-1-methyl-6-oxopyridine-3-carboxamide], 101 nM.
Regarding `COCCNS(=O)(=O)Nc1nccc(Cc2cc(C(=O)NOC)c(Nc3ccc(I)cc3F)n(C)c2=O)c1F` [J-9, 2-(2-Fluoro-4-iodoanilino)-5-[[3-fluoro-2-(2-methoxyethylsulfamoylamino)pyridin-4-yl]methyl]-N-methoxy-1-methyl-6-oxopyridine-3-carboxamide], half-maximal inhibition (IC50) required 167 nM. This IC50 lies about 1.7-fold higher than the previous one.
On to `CCS(=O)(=O)Nc1cc(Cc2cc(C(N)=O)c(Nc3ccc(I)cc3F)n(C)c2=O)ccn1` [J-12, 5-[[2-(Ethylsulfonylamino)pyridin-4-yl]methyl]-2-(2-fluoro-4-iodoanilino)-1-methyl-6-oxopyridine-3-carboxamide], for which half-maximal inhibition (IC50) required 226 nM.
On the same count and under the same terms, in the case of `Cn1c(Nc2ccc(I)cc2F)c(C(N)=O)cc(Cc2ccnc(NS(=O)(=O)NC3CC3)c2F)c1=O` [J-13, 5-[[2-(Cyclopropylsulfamoylamino)-3-fluoropyridin-4-yl]methyl]-2-(2-fluoro-4-iodoanilino)-1-methyl-6-oxopyridine-3-carboxamide] it was 196 nM.
On the same count and under the same terms, as for `CCNS(=O)(=O)Nc1nccc(Cc2cc(C(N)=O)c(Nc3ccc(I)cc3F)n(C)c2=O)c1F` [J-14, 5-[[2-(ethylsulfamoylamino)-3-fluoropyridin-4-yl]methyl]-2-(2-fluoro-4-iodoanilino)-1-methyl-6-oxopyridine-3-carboxamide], the figure is 121 nM.
For `CCCNS(=O)(=O)Nc1nccc(Cn2cc(C(N)=O)c(Nc3ccc(I)cc3F)c(F)c2=O)c1F` [N-2, 5-fluoro-4-(2-fluoro-4-iodoanilino)-1-[[3-fluoro-2-(propylsulfamoylamino)pyridin-4-yl]methyl]-6-oxopyridine-3-carboxamide], half-maximal inhibition (IC50) was put at 193 nM.

For the next experiment, the system named is Calu-6 human lung cancer cells. Kind of experiment: Cell proliferation-inhibiting activity, Calu-6 (CellTiter-Glo, ATP in viable cells). It is filed as cell-based. Particulars: Calu-6, 96 h, Table 3, 4 days culture. As to the method: as §1, §2
Calu-6: Eagle's Minimum Essential Medium (Sigma); 4000 cells/95 μL
Molecule `CCNS(=O)(=O)Nc1nccc(Cc2cc(C(N)=O)c(Nc3ccc(I)cc3F)cc2F)c1F` [1-2, 5-[[2-(Ethylsulfamoylamino)-3-fluoropyridin-4-yl]methyl]-4-fluoro-2-(2-fluoro-4-iodoanilino)benzamide] came in with an IC50 of 103 nM.
In the case of `CCS(=O)(=O)Nc1nccc(Cc2cc(C(N)=O)c(Nc3ccc(I)cc3F)c(F)c2F)c1F` [A-38, 5-[[2-(Ethylsulfonylamino)-3-fluoropyridin-4-yl]methyl]-3,4-difluoro-2-(2-fluoro-4-iodoanilino)benzamide], the IC50 came out at 122 nM.
The same measure, in the same setting: as for `CC1(NS(=O)(=O)Nc2nccc(Cc3cc(C(=O)NC4CC4)c(Nc4ccc(I)cc4F)c(F)c3F)c2F)CCC1` [A-47, N-Cyclopropyl-3,4-difluoro-2-(2-fluoro-4-iodoanilino)-5-[[3-fluoro-2-[(1-methylcyclobutyl)sulfamoylamino]pyridin-4-yl]methyl]benzamide], the figure is 104 nM; as for `CCCS(=O)(=O)Nc1nccc(Cc2cc(C(N)=O)c(Nc3ccc(I)cc3F)c(F)c2F)c1F` [B-8, 3,4-Difluoro-2-(2-fluoro-4-iodoanilino)-5-[[3-fluoro-2-(propylsulfonylamino)pyridin-4-yl]methyl]benzamide], 233 nM.
On the same count and under the same terms, as for `CCS(=O)(=O)Nc1cccc(Cc2cc(C(=O)NC3CC3)c(Nc3ccc(I)cc3F)c(F)c2F)c1F` [D-8, N-Cyclopropyl-5-[[3-(ethylsulfonylamino)-2-fluorophenyl]methyl]-3,4-difluoro-2-(2-fluoro-4-iodoanilino)benzamide], the figure is 112 nM; as for `CC1(NS(=O)(=O)Nc2cccc(Cc3cc(C(=O)NC4CC4)c(Nc4ccc(I)cc4F)c(F)c3F)c2F)CCC1` [D-10, N-Cyclopropyl-3,4-difluoro-2-(2-fluoro-4-iodoanilino)-5-[[2-fluoro-3-[(1-methylcyclobutyl)sulfamoylamino]phenyl]methyl]benzamide], 307 nM.
The same measure, in the same setting: in the case of `NC(=O)c1cc(Cc2cccc(NS(=O)(=O)CCCF)c2F)c(F)c(F)c1Nc1ccc(I)cc1F` [E-15, 3,4-Difluoro-5-[[2-fluoro-3-(3-fluoropropylsulfonylamino)phenyl]methyl]-2-(2-fluoro-4-iodoanilino)benzamide] it was 152 nM; in that of `CCCS(=O)(=O)Nc1cccc(Cc2cc(C(N)=O)c(Nc3ccc(I)cc3F)c(F)c2F)c1F` [E-18, 3,4-Difluoro-2-(2-fluoro-4-iodoanilino)-5-[[2-fluoro-3-(propylsulfonylamino)phenyl]methyl]benzamide], 122 nM.
With `NC(=O)c1cc(Cc2cccc(NS(=O)(=O)C3CCC3)c2F)c(F)c(F)c1Nc1ccc(I)cc1F` [E-20, 5-[[3-(Cyclobulsulfonylamino)-2-fluorophenyl]methyl]-3,4-difluoro-2-(2-fluoro-4-iodoanilino)benzamide], the IC50 was 103 nM.
`NC(=O)c1cc(Cc2cccc(NS(=O)(=O)C3COC3)c2F)c(F)c(F)c1Nc1ccc(I)cc1F` [E-21, 3,4-Difluoro-2-(2-fluoro-4-iodoanilino)-5-[[2-fluoro-3-(oxetan-3-ylsulfonylamino)phenyl]methyl]benzamide]: the IC50 was 109 nM.
On the same count and under the same terms, as for `COCCS(=O)(=O)Nc1cccc(Cc2cc(C(N)=O)c(Nc3ccc(I)cc3F)c(F)c2F)c1` [F-3, 3,4-Difluoro-2-(2-fluoro-4-iodoanilino)-5-[[3-(2-methoxyethylsulfonylamino)phenyl]methyl]benzamide], the figure is 118 nM; as for `CNS(=O)(=O)Nc1nccc(Cc2cc(C(=O)NOC)c(Nc3ccc(Cl)cc3F)c(F)c2F)c1F` [G-4, 2-(4-Chloro-2-fluoroanilino)-3,4-difluoro-5-[[3-fluoro-2-(methylsulfamoylamino)pyridin-4-yl]methyl]-N-methoxybenzamide], 259 nM; as for `CCS(=O)(=O)Nc1nccc(Cc2cc(C(=O)NC3CC3)c(Nc3ccc(C4CC4)cc3F)c(F)c2F)c1F` [G-7, N-Cyclopropyl-2-(4-cyclopropyl-2-fluoroanilino)-5-[[2-(ethylsulfonylamino)-3-fluoropyridin-4-yl]methyl]-3,4-difluorobenzamide], 443 nM.
The same measure, in the same setting: as for `COCCNS(=O)(=O)Nc1nccc(Cc2cc(C(=O)NOC)c(Nc3ccc(I)cc3F)n(C)c2=O)c1F` [J-9, 2-(2-Fluoro-4-iodoanilino)-5-[[3-fluoro-2-(2-methoxyethylsulfamoylamino)pyridin-4-yl]methyl]-N-methoxy-1-methyl-6-oxopyridine-3-carboxamide], the figure is 232 nM; as for `CCS(=O)(=O)Nc1cc(Cc2cc(C(N)=O)c(Nc3ccc(I)cc3F)n(C)c2=O)ccn1` [J-12, 5-[[2-(Ethylsulfonylamino)pyridin-4-yl]methyl]-2-(2-fluoro-4-iodoanilino)-1-methyl-6-oxopyridine-3-carboxamide], 471 nM; as for `Cn1c(Nc2ccc(I)cc2F)c(C(N)=O)cc(Cc2ccnc(NS(=O)(=O)NC3CC3)c2F)c1=O` [J-13, 5-[[2-(Cyclopropylsulfamoylamino)-3-fluoropyridin-4-yl]methyl]-2-(2-fluoro-4-iodoanilino)-1-methyl-6-oxopyridine-3-carboxamide], 281 nM.
On the same count and under the same terms, in the case of `CCNS(=O)(=O)Nc1nccc(Cc2cc(C(N)=O)c(Nc3ccc(I)cc3F)n(C)c2=O)c1F` [J-14, 5-[[2-(ethylsulfamoylamino)-3-fluoropyridin-4-yl]methyl]-2-(2-fluoro-4-iodoanilino)-1-methyl-6-oxopyridine-3-carboxamide] it was 123 nM; in that of `Cn1c(Nc2ccc(I)cc2F)c(C(N)=O)cc(Cc2ccnc(NS(=O)(=O)NC3(C)CCC3)c2F)c1=O` [J-15, 2-(2-Fluoro-4-iodoanilino)-5-[[3-fluoro-2-[(1-methylcyclobutyl)sulfamoylamino]pyridin-4-yl]methyl]-1-methyl-6-oxopyridine-3-carboxamide], 284 nM; in that of `CCS(=O)(=O)Nc1cccc(Cc2cc(C(=O)NC3CC3)c(Nc3ccc(I)cc3F)n(C)c2=O)c1F` [K-8, N-Cyclopropyl-5-[[3-(ethylsulfonylamino)-2-fluorophenyl]methyl]-2-(2-fluoro-4-iodoanilino)-1-methyl-6-oxopyridine-3-carboxamide], 122 nM.
In turn, `Cc1c(Nc2ccc(I)cc2F)c(C(N)=O)cn(Cc2ccnc(NS(=O)(=O)NC3(C)CCC3)c2F)c1=O` [P-3, 4-(2-Fluoro-4-iodoanilino)-1-[[3-fluoro-2-[(1-methylcyclobutyl)sulfamoylamino]pyridin-4-yl]methyl]-5-methyl-6-oxopyridine-3-carboxamide] had an IC50 of 223 nM.
Consider `CCS(=O)(=O)Nc1nccc(Cn2cc(C(=O)NOC)c(Nc3ccc(I)cc3F)c(C)c2=O)c1F` [P-5, 1-[[2-(ethylsulfonylamino)-3-fluoropyridin-4-yl]methyl]-4-(2-fluoro-4-iodoanilino)-N-methoxy-5-methyl-6-oxopyridine-3-carboxamide], for which inhibition was half-maximal at 447 nM (IC50).
